How the values were obtained:
[1] = cited from earlier work
[2] = In-vitro hydroxycinnamoyl-CoA transferase activity of soluble E. coli extracts expressing HDT1 or HDT2, HPLC of products; type: biochemical, Trifolium pratense; settings: expressed in E. coli; p-coumaroyl-, caffeoyl-, and feruloyl-CoA
Description: Plasmids containing full-length red clover HDT coding regions (both HDT1 (SEQ ID NO: 1) and HDT2 (SEQ ID NO: 3)) were used as templates in PCR reactions with primers designed to introduce an […] restriction site at the start codons (ms886—SEQ ID NO: 13) and an XhoI site immediately following the stop codon (ms887—SEQ ID NO: 14) of each open reading frame. The resulting PCR products were digested with NcoI and XhoI and inserted into pET28a (Novagen, Madison, Wis.) digested with NcoI and XhoI. The insert is operably linked to the IPTG-inducible promoter contained in pET28. Each plasmid was sequenced to confirm correct sequence was generated.
Each pET28 derivative containing HDT coding regions (pET28-HDT1 and pET28-HDT2) or pET28 (as a negative control) were transformed, individually, into BL21(DE3)RIL Codon Plus E. coli (Agilent Technologies, Santa Clara, Calif.). […] The soluble fraction was isolated, divided into single use aliquots, flash frozen in liquid nitrogen and stored at −80° C. until ready to use. […]
The supernatant is analyzed for reaction products by HPLC. […]

Molecule | HDT activity ([1]; HCT2 gene product produced in E. coli) | preference for p-coumaroyl-CoA and feruloyl-CoA donor substrates over caffeoyl-CoA ([1]; in-vitro) | transfer of trans-hydroxycinnamoyl moiety from CoA derivative to L-DOPA or L-tyrosine [2]
hydroxycinnamoyl-CoA:malate hydroxycinnamoyl transferase [HMT] | does not have HDT activity | five- to tenfold | –
hydroxycinnamoyl-CoA:L-DOPA/tyrosine hydroxycinnamoyl transferase 1 (protein, Trifolium pratense) MVTIIASHTVIPEEPTPQGPFWLSDMDQVVRIRDVPTLYIYKTPKKNQENKNIVETFKNSLSKILVHYYPIAGRLCYIEGGRLELNLNAKGAILVEAETEKTMNDYGDFSHFDTIKELVPMIDYNQPIEEIPNFVVQLTNFKNNEGFAIGVAFLHPLSDGLGAIKFINSWAKIARGETLEANELPFLDRKLLKFSHTPLEPRFEHLELKPLPLILGRKDASEEKEKKTSATLLKLSSEQVDKLKKKANEEDVLGIQKKEYSRPYSKFEVISAHIWRCASKARELEDNQESVIRFIADVKNRMIPPLPKNYFGNALTQTATKGYIGEITSKPLGYVAQKIREATELINDEYIRSQIDVVRSFEHLDDARKMFIGEKARYFGNPNFNLTSWLSMPVYEADFGWGKPNYFGLADVSPHDRAVILLSPDDDGSVLVSFHFQIAHMELFNKYFYEEI | – | – | capable of transferring a trans-hydroxycinnamoyl moiety
hydroxycinnamoyl-CoA:L-DOPA/tyrosine hydroxycinnamoyl transferase 2 (protein, Trifolium pratense) MVTIIASHTVIPEEPTPQGPFWLSDMDQVVRIRDVPTLYIYKTPKKNQENKNIVETFKNSLSKILVHYYPIAGRLCYIEGGRLELNLNAKGAILVEAETEKTMNDYGDFSHFDTIKELVPMIDYNQPIEEIPNFVVQLTKFKNNEGFAIGVAFLHPLSDGLGAIKFINSWAKIARGETLEANELPFLDRKLLKFSHTPLEPRFEHLELKPLPLILGRKDASEEKEKKTSATLLKLSSEQVDKLKKKANEEDVLGVQKKEYSRPYSKFEVISAHIWRCASKARELKDNQESVIRFIADVKNRMIPPLPKNYFGNALTQTATKGYIGEITSKPLGYVAQKIREATELVNDEYIRSQIDVVRSFEHLDDARKMFIGEKARYFGNPNFNLTSWLSMPVYEADFGWGKPNYFGLADVSPHDRAVILLSPDDDGSVLVSFHLQIAHMELFNKYFYEEI | – | – | capable of transferring a trans-hydroxycinnamoyl moiety

From patent US10711278B2, “Genetically altered alfalfa producing clovamide and/or related hydroxycinnamoyl amides” (The United States of America, as represented by the …, priority 2015, dated 2020)
